Source: patent publication US6897211B2, “Thienodibenzoazulene compounds as tumor necrosis factor inhibitors” (Pliva-Istrazivacki Institut d.o.o., priority 2000, dated 2005)

tested on: not given; test: not given; settings: not given

Compound	melting point [°C]
CN(C)CCOCc1cc2c(s1)-c1ccccc1Oc1ccccc1-2.Cl	131 to 133
Cl.c1ccc2c(c1)Oc1ccccc1-c1sc(COCCN3CCOCC3)cc1-2	157 to 158
Cl.c1ccc2c(c1)Oc1ccccc1-c1sc(COCCN3CCCCC3)cc1-2	117 to 123
CN(C)CCCOCc1cc2c(s1)-c1ccccc1Oc1ccccc1-2.Cl [Example 1, Dimethyl-[3-(8-oxa-1-thia-dibenzo[e,h]azulene-2-ylmethoxy)-propyl]-amine hydrochloride]	120 to 122
CN(C)CCCOCc1cc2c(s1)-c1cccc(Cl)c1Oc1ccccc1-2 [Example 6, [3-(9-chloro-8-oxa-1-thia-dibenzo[e,h]azulene-2-ylmethoxy)-propyl]-dimethyl-amine]	124 to 128
CN(C)CCOCc1cc2c(s1)-c1cccc(Cl)c1Oc1ccccc1-2 [Example 7, [2-(9-chloro-8-oxa-1-thia-dibenzo[e,h]azulene-2-ylmethoxy)-ethyl]-dimethyl-amine]	122

tested on: secretion of TNF-α and IL-1; test: investigated tests: TNF-α and IL-1 secretion in human PBMC and mouse peritoneal macrophages in vitro, LPS-induced TNF-α/IL-1 secretion in mice, writhing test, LPS-induced shock in mice; settings: tests not specified per compound; active = IC-50 20 μM or lower (human PBMC), 10 μM or lower (mouse macrophages), 30% or higher TNF-α inhibition at 10 mg/kg p.o., analgetic activity same or better than acetyl salicylic acid, 40% or better survival at 30 mg/kg

Compound	activity in at least two investigated tests
CN(C)CCCOCc1cc2c(s1)-c1ccccc1Oc1ccccc1-2.Cl [Example 1, Dimethyl-[3-(8-oxa-1-thia-dibenzo[e,h]azulene-2-ylmethoxy)-propyl]-amine hydrochloride]	activity in at least two investigated tests
Cl.c1ccc2c(c1)Oc1ccccc1-c1sc(COCCN3CCCC3)cc1-2 [Example 5, 1-[2-(8-oxa-1-thia-dibenzo[e,h]azulene-2-ylmethoxy)-ethyl]-pyrrolidine hydrochloride]	activity in at least two investigated tests
Cl.Fc1ccc2c(c1)-c1sc(COCCN3CCCCC3)cc1-c1ccccc1O2 [Example 19, 1-[2-(11-fluoro-8-oxa-1-thia-dibenzo[e,h]azulene-2-ylmethoxy)-ethyl]-piperidine hydrochloride]	activity in at least two investigated tests
CN(C)CCCOCc1cc2c(s1)-c1ccccc1Sc1ccccc1-2.Cl [Example 21, [3-(1,8-dithia-dibenzo[e,h]azulene-2-ylmethoxy)-propyl]-dimethylamine hydrochloride]	activity in at least two investigated tests
